Patent US4704464A, “Tumor retarding (1-benzyl-ethylenediamine)-platin (II)-complexes” (ASTA-Werke Aktiengesellschaft Chemische Fabrik, priority 1985, dated 1987)

Assay: solubility
Type: physicochemical
Conditions: Example 37 complexes

water solubility: good water solubility
Substance: D,L-dibenzenesulfonate-(1-benzylethylenediamine)-platinum II [dibenzenesulfonate complexes]
